Target: T1, FLT3 D835V (Homo sapiens, UniProt P36888, D835V)
T1 sequence (P36888 27-993 D835V): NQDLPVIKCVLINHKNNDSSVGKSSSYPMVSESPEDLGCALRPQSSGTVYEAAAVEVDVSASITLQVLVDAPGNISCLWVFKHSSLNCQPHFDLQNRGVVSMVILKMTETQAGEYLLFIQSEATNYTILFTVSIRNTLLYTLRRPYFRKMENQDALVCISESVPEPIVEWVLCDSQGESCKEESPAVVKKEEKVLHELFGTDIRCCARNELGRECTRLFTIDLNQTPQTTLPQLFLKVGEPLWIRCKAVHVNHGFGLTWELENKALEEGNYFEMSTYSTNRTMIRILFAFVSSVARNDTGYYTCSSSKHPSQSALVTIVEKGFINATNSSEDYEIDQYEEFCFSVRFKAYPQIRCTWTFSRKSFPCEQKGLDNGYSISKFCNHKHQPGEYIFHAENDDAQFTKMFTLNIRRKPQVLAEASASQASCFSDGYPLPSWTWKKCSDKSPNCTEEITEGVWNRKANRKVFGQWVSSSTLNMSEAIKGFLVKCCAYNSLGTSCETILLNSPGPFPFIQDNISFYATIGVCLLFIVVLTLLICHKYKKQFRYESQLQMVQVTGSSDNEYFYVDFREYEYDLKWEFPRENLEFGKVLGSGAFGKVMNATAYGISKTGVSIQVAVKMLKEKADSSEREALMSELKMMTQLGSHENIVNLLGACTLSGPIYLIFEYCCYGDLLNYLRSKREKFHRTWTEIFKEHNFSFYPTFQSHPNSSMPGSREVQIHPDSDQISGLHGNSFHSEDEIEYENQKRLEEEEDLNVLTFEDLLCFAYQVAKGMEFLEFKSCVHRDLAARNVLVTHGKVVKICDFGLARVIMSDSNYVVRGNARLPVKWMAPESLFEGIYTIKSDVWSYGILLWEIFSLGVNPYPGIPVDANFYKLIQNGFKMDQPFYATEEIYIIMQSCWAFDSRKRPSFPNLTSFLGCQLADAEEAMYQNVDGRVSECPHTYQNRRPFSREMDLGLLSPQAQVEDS
Test: DiscoverX KINOMEscan active site-directed competition binding, FLT3 D835V
Conditions: Table 12; no ATP
Text: (§1) Kinase binding data were obtained for various exemplary compounds prepared according to Examples 1-8 using the DiscoverX KINOMEscan® active site-directed competition binding site-directed assay protocol described below. […] As a result, the data report thermodynamic interaction affinities (Kd values), rather than IC50 values that are dependent on ATP concentrations. The assay uses a DNA-tagged version of the protein kinase, and an immobilized ligand bound to a solid support. Compounds that directly or indirectly prevent kinase binding to the immobilized ligand reduce the amount of kinase captured on the solid support, which is detected using an ultra-sensitive qPCR method. Affinity constants reported from the assay have been reported to be independent of the immobilized ligand used that is coupled to the solid support (See supplemental information in Fabian, M. A. et. al., (2005) Nat. Biotechnol. 23, 329-336; Wodicka, L. M. et. al., (2010) Chem. Biol. 17, 1241-1249.)
Kinase-tagged T7 phage strains were prepared in an E. coli host derived from the BL21 strain. E. coli were grown to log-phase and infected with T7 phage and incubated with shaking at 32 °C until lysis. The lysates were centrifuged and filtered to remove cell debris. The remaining kinases were produced in HEK-293 cells and subsequently tagged with DNA for qPCR detection. Streptavidin-coated magnetic beads were treated with biotinylated small molecule ligands for 30 minutes at room temperature to generate affinity resins for kinase assays. The liganded beads were blocked with excess biotin and washed with blocking buffer (SeaBlock (Pierce), 1% BSA, 0.05% Tween 20, 1 mM DTT) to remove unbound ligand and to reduce non-specific binding. […] Test compounds were prepared as 111x stocks in 100% DMSO. Kds were determined using an 11-point 3-fold compound dilution series with three DMSO control points. All compounds for Kd measurements are distributed by acoustic transfer (non-contact dispensing) in 100% DMSO. The compounds were then diluted directly into the assays such that the final concentration of DMSO was 0.9%. All reactions were performed in polypropylene 384-well plates. Each was a final volume of 0.02 mL. The assay plates were incubated at room temperature with shaking for 1 hour and the affinity beads were washed with wash buffer (1×PBS, 0.05% Tween 20). The beads were then re-suspended in elution buffer (1×PBS, 0.05% Tween 20, 0.5 μM nonbiotinylated affinity ligand) and incubated at room temperature with shaking for 30 minutes. The kinase concentration in the eluates was measured by qPCR. Binding constants (Kds) were calculated with a standard dose-response curve using the Hill equation. The Hill Slope was set to −1. Curves were fitted using a non-linear least square fit with the Levenberg-Marquardt algorithm.
as §1, with “9-12” for “1-8”
Kinase-tagged T7 phage strains were prepared in an E. coli host derived from the BL21 strain. […]

Kd [nM]	SMILES
< 0.17	COc1cn2ncc(-c3nc(N[C@H]4CNCC[C@@H]4F)c(C#N)cc3F)c2nc1C1CC1 [Compound 7, 6-(5-cyclopropyl-6-methoxypyrazolo[1,5-a]pyrimidin-3-yl)-5-fluoro-2-(((3S,4S)-4-fluoropiperidin-3-yl)amino)nicotinonitrile]
< 0.17	COc1cn2ncc(-c3nc(N[C@H]4CNCC[C@@H]4F)c(F)cc3F)c2nc1C(C)(C)O [Compound 13, 2-(3-(3,5-difluoro-6-(((3S,4S)-4-fluoropiperidin-3-yl)amino)pyridin-2-yl)-6-methoxypyrazolo[1,5-a]pyrimidin-5-yl)propan-2-ol]
< 0.17	COc1cn2ncc(-c3nc(N[C@H]4CNCC[C@@H]4F)c(C#N)cc3F)c2nc1C(C)(C)O [Compound 10, 5-fluoro-2-(((3S,4S)-4-fluoropiperidin-3-yl)amino)-6-(5-(2-hydroxypropan-2-yl)-6-methoxypyrazolo[1,5-a]pyrimidin-3-yl)nicotinonitrile]

Same assay, conditions: Table 18; no ATP

Kd [nM]	SMILES
< 0.17	COc1cn2ncc(-c3cncc(N[C@H]4CNCC[C@@H]4F)n3)c2nc1C1CC1 [Compound 12a, 6-(5-cyclopropyl-6-methoxypyrazolo[1,5-a]pyrimidin-3-yl)-N-((3S,4S)-4-fluoropiperidin-3-yl)pyrazin-2-amine]
< 0.17	COc1cn2ncc(-c3nc(N[C@H]4CNCC[C@@H]4F)ncc3F)c2nc1C(C)(C)O [Compound 6a, 2-(3-(5-fluoro-2-(((3S,4S)-4-fluoropiperidin-3-yl)amino)pyrimidin-4-yl)-6-methoxypyrazolo[1,5-a]pyrimidin-5-yl)propan-2-ol]
0.48	COc1cn2ncc(-c3ccnc(N[C@H]4CNCC[C@@H]4F)n3)c2nc1C1CC1 [Compound 7a, 4-(5-cyclopropyl-6-methoxypyrazolo[1,5-a]pyrimidin-3-yl)-N-((3S,4S)-4-fluoropiperidin-3-yl)pyrimidin-2-amine]
0.28	COc1cn2ncc(-c3nc(N[C@H]4CNCC[C@@H]4F)ncc3F)c2nc1C1CC1 [Compound 15a, 4-(5-cyclopropyl-6-methoxypyrazolo[1,5-a]pyrimidin-3-yl)-5-fluoro-N-((3S,4S)-4-fluoropiperidin-3-yl)pyrimidin-2-amine]
< 0.17	COc1cn2ncc(-c3nc(N[C@@H]4CCCNC4)ncc3F)c2nc1C1CC1 [Compound 14a, (R)-4-(5-cyclopropyl-6-methoxypyrazolo[1,5-a]pyrimidin-3-yl)-5-fluoro-N-(piperidin-3-yl)pyrimidin-2-amine]

From patent US20260374773A1, “MULTI-CYCLIC IRAK AND FLT3 INHIBITING COMPOUNDS AND USES THEREOF” (CHILDREN'S HOSPITAL MEDICAL CENTER, priority 2022, published 2026)
